# Measured values reported in patent US6706293B1, “Pharmaceutical composition capable of regulating the expression of adhesion molecules” (Especialidades Farmaceuticas Centrum, S.A., priority 1999, dated 2004).
# Columns and labels:
# Female WISTAR rats = experiment: Anti-inflammatory activity in acute and chronic phase in rats (adjuvant + carrageenin foot volume, method of Mizushima); type: in vivo, rat; conditions: oral, Phenylbutazone 80 mg/Kg, extract 1.25 g per kg
# Description: A study of the anti-inflammatory activity has been made in acute and chronic phase in rats. The method used was as described by Mizushima. The reference medicament (Phenylbutizene, dose 80 mg/Kg) and the products of the study (dose equivalent to 1.25 g extract per kg weight of animal) were dissolved in a solution of 1% of CMC (carboxymethylcellulose) in distillated water (w/v) and Tween 80: distillated water (0.2:3.3-v/v), in order to be administrated orally. Six days after inoculation, by intradermal route of 0.1 mL of the complete adjuvant Freund (DIFCO) in the basal part of the tail, was injected 0.1 mL of a suspension of carrageenin type IV 2% (w/v) at the aponeurosis of the left back foot. The volume of the foot of the animal was measured, using a water pletismometer, immediately before the carrageenin injection (basal volume) and afterwards at 3, 5, and 7 hours (acute phase of the inflammation) and at 24, 48, 72, and 96 hours (chronic phase of inflammation). The products of the study, the phenylbutazone, and the carrier were administrated, orally and in portions of 6 animals, 1 hour before the carrageenin injection and at 24, 48 and 72 hours. The percentage of inhibition of the inflammation was calculated by comparing the increase of the volume of the animal foot in respect of its basal volume, for each group of animals and in relation to the control group. The control group was given the carrier of phenylbutazone and the products of the study. The statistical significance was evaluated via the T Student test.
# CD11a = experiment: In vitro expression of adhesion molecules in peripheral blood mononuclear cells (flow cytometry); type: cell-based, human; conditions: PBMNc of 10 healthy individuals, 48 hours culture; PHA 10 μg/ml, Anapsos 150 μg/ml; CONTROL 17%
# Description: (§1) Peripheral blood was extracted from 10 healthy individuals and the mononuclear cells was separated via Fycoll-Hypaque density gradient centrifugation. The cells was cultivated in plane bottom microtiter plates, at a titer of 1 million/ml for 48 hours in a CO2 incubator, with phytohaemagglutinin (PHA) at concentrations of 0, 0.5, 2, 5 and 10 μg/ml and/or with Anapsos at concentrations between 0 to 5000 μg/ml. Finalized the culturing, the lymphocytes was analyzed by flow cytometry. The expression of determined adhesion molecules (CD11a, CD11b, CD18, CD54) was studied in relation to the different conditions of stimuli. En parallel to the culture as described above, a culture for 5 days was made under the same conditions of stimuli as above. Tritium thymidine was added 16 hours before finalizing the culture. Terminated the culture, the cells was washed with the Harvester and flashing liquid was incorporated into the cells. The cellular incorporation of tritium thymidine was measured via a β counter. During the culturing, the cells were photographed via an inverted microscope.
# CD18 = experiment: as above; type: cell-based, human; conditions: PBMNc of 10 healthy individuals, 48 hours culture; PHA 10 μg/ml, Anapsos 150 μg/ml; CONTROL 20%
# Description: as §1
# CD11b = experiment: as above; type: cell-based, human; conditions: PBMNc of 10 healthy individuals, 48 hours culture; PHA 10 μg/ml, Anapsos 150 μg/ml; CONTROL 20%
# Description: as §1
# CD54 = experiment: as above; type: cell-based, human; conditions: PBMNc of 10 healthy individuals, 48 hours culture; PHA 10 μg/ml, Anapsos 150 μg/ml; CONTROL 2%
# Description: as §1
Molecule,% INHIBITION OF THE INFLAMMATION 3 h (Female WISTAR rats; 3 h after carrageenin (acute phase)),% INHIBITION OF THE INFLAMMATION 5 h (Female WISTAR rats; 5 h after carrageenin (acute phase)),% INHIBITION OF THE INFLAMMATION 7 h (Female WISTAR rats; 7 h after carrageenin (acute phase)),% INHIBITION OF THE INFLAMMATION 24 h (Female WISTAR rats; 24 h after carrageenin (chronic phase)),% INHIBITION OF THE INFLAMMATION 48 h (Female WISTAR rats; 48 h after carrageenin (chronic phase)),% INHIBITION OF THE INFLAMMATION 72 h (Female WISTAR rats; 72 h after carrageenin (chronic phase)),% INHIBITION OF THE INFLAMMATION 96 h (Female WISTAR rats; 96 h after carrageenin (chronic phase)),"Expression, in vitro, of CD11a (CD11a)","Expression, in vitro, of CD18 (CD18)","Expression, in vitro, of CD11b (CD11b)","Expression, in vitro, of CD54 (CD54)"
CCCCC1C(=O)N(c2ccccc2)N(c2ccccc2)C1=O [Phenylbutazone],41%,27%,21%,36%,60%,56%,40%,–,–,–,–
phytohaemagglutinin [PHA],–,–,–,–,–,–,–,22%,27%,35%,9%
